Legend:
Format in all cases: biochemical
[1] = target: CDK-2 enzyme, complexed with cyclin A (Homo sapiens, UniProt P24941); experiment: CDK2 enzyme inhibition assay (33P phosphorylation of peptide […], filter plate); settings: CDK-2/cyclin A, 0.1 mM ATP, 40 min at 30° C.
Procedure: (§1) The assay mixture containing the inhibitor and CDK-2 enzyme, complexed with cyclin A (0.4 U/ml) was mixed together in a microtiter plate in a final volume of 50 μl and incubated for 40 min at 30° C. The assay mixture contained 0.1 mM unlabeled ATP, 0.01 μCi/μl ^33P-γ-ATP, 0.03 mM peptide, 0.1 mg/ml BSA, 7.5 mM magnesium acetate, 50 mM HEPES-NaOH, pH 7.5. The reaction was stopped by adding 50 μl of 50 mM phosphoric acid. 90 μl of the mixture were transferred to a pre-wetted 96-well Multiscreen MAPHNOB filtration plate (Millipore) and filtered on a vacuum manifold. […] The filtration plate was dried for 10 min at 65° C., scintillant added and phosphorylated peptide quantified in a scintillation counter (Trilux, PerkinElmer)
HEPES is N-[2-Hydroxyethyl]piperazine-N′-[2-ethanesulfonic acid] BSA is bovine serum albumin.

GST-Chk1 enzyme = target: T1, GST-Chk1 enzyme (Homo sapiens, UniProt O14757); experiment: Chk1 kinase inhibition assay (33P phosphorylation of Chktide, filter plate); settings: 0.01 mM ATP, 11 nM GST-Chk1, 40 minutes at 30° C.; read-out: Chk1 IC50
T1 sequence (O14757 1-476): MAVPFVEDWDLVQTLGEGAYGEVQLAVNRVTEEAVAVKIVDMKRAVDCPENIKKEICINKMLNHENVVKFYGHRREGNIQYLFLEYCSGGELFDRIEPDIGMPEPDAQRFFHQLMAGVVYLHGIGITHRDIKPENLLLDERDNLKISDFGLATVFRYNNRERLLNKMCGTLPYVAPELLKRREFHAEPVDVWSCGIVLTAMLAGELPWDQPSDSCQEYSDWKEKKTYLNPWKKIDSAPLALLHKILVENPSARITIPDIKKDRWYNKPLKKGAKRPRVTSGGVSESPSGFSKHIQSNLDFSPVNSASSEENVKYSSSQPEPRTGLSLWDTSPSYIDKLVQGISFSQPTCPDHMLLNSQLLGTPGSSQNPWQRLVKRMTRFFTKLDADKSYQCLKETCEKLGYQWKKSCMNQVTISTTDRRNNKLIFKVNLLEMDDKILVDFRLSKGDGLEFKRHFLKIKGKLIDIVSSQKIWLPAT
Procedure: The assay mixture containing the inhibitor and Chk1 enzyme was mixed together in a microtiter plate in a final volume of 50 μl and incubated for 40 minutes at 30° C.
The reaction was stopped by adding 50 μl of 50 mM phosphoric acid. 90 μl of the mixture was transferred to a pre-wetted 96-well Multiscreen MAPHNOB filtration plate (Millipore) and filtered on a vacuum manifold. […] The filtration plate was dried for 10 min at 65° C., scintillant added and phosphorylated peptide quantified in a scintillation counter (Trilux, PerkinElmer)

PDK1 enzyme = target: T2, PDK1 enzyme (Homo sapiens, UniProt O15530); experiment: PDK1 kinase inhibition assay (33P phosphorylation of synthetic peptide, filter plate); settings: 0.01 mM ATP, 60 min at 30° C.; read-out: PDK1 IC50
T2 sequence (O15530 1-556): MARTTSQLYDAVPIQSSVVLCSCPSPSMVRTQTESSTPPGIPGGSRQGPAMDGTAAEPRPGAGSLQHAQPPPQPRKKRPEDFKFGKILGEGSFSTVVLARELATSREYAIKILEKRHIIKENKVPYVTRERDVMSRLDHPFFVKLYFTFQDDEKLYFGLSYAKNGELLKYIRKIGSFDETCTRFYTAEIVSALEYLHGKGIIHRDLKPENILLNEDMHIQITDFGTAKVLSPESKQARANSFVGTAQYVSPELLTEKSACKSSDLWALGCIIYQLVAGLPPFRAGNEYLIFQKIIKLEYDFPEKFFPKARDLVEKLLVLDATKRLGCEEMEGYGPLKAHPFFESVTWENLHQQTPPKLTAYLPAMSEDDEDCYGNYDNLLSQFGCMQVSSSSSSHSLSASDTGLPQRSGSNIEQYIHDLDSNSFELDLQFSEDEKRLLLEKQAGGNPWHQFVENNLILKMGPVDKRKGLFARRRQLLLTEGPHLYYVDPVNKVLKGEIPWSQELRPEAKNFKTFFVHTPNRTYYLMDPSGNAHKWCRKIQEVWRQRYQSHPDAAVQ
Procedure: as §1, with “and PDK1 enzyme” for “and CDK-2 enzyme, complexed with cyclin A (0.4 U/ml)”, “for 60” for “for 40”, “contained 0.01” for “contained 0.1”, “^33P-γ-ATP, 0.075” for “^33P-γ-ATP, 0.03”, “acetate, 0.05M Tris.HCl,” for “acetate, 50 mM HEPES-NaOH,”, “pH 7.5, 0.5% 2-mercaptoethanol.” for “pH 7.5.”

SMILES | IC50 [1] [nM] | IC50 (GST-Chk1 enzyme) [nM] | IC50 (PDK1 enzyme) [nM]
CC(C)c1cnn2c(Nc3ccc(S(=O)(=O)N(C)C)cc3)cc(CO)nc12 [Example 146] | 546 |  | 
CN(C)S(=O)(=O)c1ccc(Nc2cc(N[C@H]3CC[C@H](N)CC3)nc3c(Br)cnn23)cc1 [Example 31, 3-bromo-5-(trans-4-aminocyclohexylamino)-7-(4-(N,N-dimethylsulphonamido)phenylamino)pyrazolo[1,5-a]pyrimidine] | 8 | 1270 | 325
CC(C)c1cnn2c(Nc3ccc(S(=O)(=O)N(C)C)cc3)cc(NC3CCCC(N)C3)nc12 (stereo not drawn) [Example 113] | 2050 | 2200 | 3120
CC(C)c1cnn2c(Nc3ccc(S(=O)(=O)N(C)C)cc3)cc(N[C@H]3CC[C@H](NS(C)(=O)=O)CC3)nc12 [Example 126] | 73 | > 200000 | 34400
CN(C)S(=O)(=O)c1ccc(Nc2cc(O[C@H]3CC[C@H](N)CC3)nc3c(Br)cnn23)cc1 [Example 158] | 5 |  | 
CC(C)c1cnn2c(Nc3ccc(S(N)(=O)=O)cc3)cc(N[C@H]3CC[C@H](N)CC3)nc12 [Example 134] | 26 |  | 4430
Clc1cccc(Nc2cc(Cl)nc3c(Br)cnn23)c1 [Example 160] | 108 |  | 
O=S(=O)(c1ccccc1)c1ccc(Nc2cc(Cl)nc3c(Br)cnn23)cc1 [Example 136] | 204 |  | 16000
N[C@H]1CC[C@H](Nc2cc(Nc3ccc(Oc4ccc(F)cc4)cc3)n3ncc(Cl)c3n2)CC1 [Example 190] | 46 |  | 
CN(C)S(=O)(=O)c1ccc(Nc2cc(N[C@H]3CC[C@H](N)CC3)nc3ccnn23)cc1 [Example 169] | 98 |  | 3360
CC(C)c1cnn2c(NC3CCN(C(=O)OC(C)(C)C)CC3)cc(Cl)nc12 [Example 153] | 3440 |  | 
CN1CCN(S(=O)(=O)c2ccc(Nc3cc(Cl)nc4c(Br)cnn34)cc2)CC1 [Example 139] | 176 |  | > 50000
CNCCNC(=O)c1cc(Nc2ccc(S(=O)(=O)N(C)C)cc2)n2ncc(C(C)C)c2n1 [Example 155] | 142 | 53000 | 
O=S(=O)(c1ccc(Nc2cc(Cl)nc3c(Cl)cnn23)cc1)c1cccs1 [Example 188] | 89 |  | 
CC(C)c1cnn2c(Nc3ccc(S(=O)(=O)N(C)C)cc3)cc(N[C@H]3CCCC[C@H]3N)nc12 [Example 132] | 3630 |  | 10400
CCc1cnn2c(Nc3ccc(C(=O)NCCN(CC)CC)cc3)cc(Cl)nc12 [Example 152] | 790 | 32000 | 
CC(C)c1cnn2c(Nc3ccc(S(=O)(=O)N(C)C)cc3)cc(CN3CCC(O)CC3)nc12 [Example 170] | 1800 |  | > 200000
CCc1cnn2c(Nc3ccc(S(=O)(=O)N4CCCC4)cc3)cc(Cl)nc12 [Example 142] | 66 |  | > 200000
Brc1cccc(-c2cc(NCc3ccncc3)n3nccc3n2)c1 [Example 3] |  | 29600 | 34600
O=S(=O)(c1ccccc1)c1ccc(Nc2cc(N[C@H]3CC[C@H](O)CC3)nc3c(Br)cnn23)cc1 [Example 182] | 248 |  | 3000
CN(C)S(=O)(=O)c1ccc(Nc2cc(O[C@@H]3CCNC3)nc3c(Cl)cnn23)cc1 [Example 195] | 240 | 7790 | 
